Measurements taken from patent US20250051347A1, “BIFUNCTIONAL CHIMERIC HETEROCYCLIC COMPOUND AND USE THEREOF AS ANDROGEN RECEPTOR DEGRADER” (Hinova Pharmaceuticals, Inc., priority 2021, published 2025).

biological target: T1, androgen receptor (AR) splicing variant AR-v7 (Homo sapiens, UniProt P10275); assay: Degradation activity on androgen receptor splicing variant AR-v7 in 22RV1 cells (ELISA); format: cell-based; conditions: AR-v7 degradation in 22RV1 cells, 48 h, class symbols
T1 construct: The degradation activity of compounds on AR-v7 in 22RV1 cells; host or cells: 22RV1 cells
T1 sequence (P10275 1-644 isoform P10275-3): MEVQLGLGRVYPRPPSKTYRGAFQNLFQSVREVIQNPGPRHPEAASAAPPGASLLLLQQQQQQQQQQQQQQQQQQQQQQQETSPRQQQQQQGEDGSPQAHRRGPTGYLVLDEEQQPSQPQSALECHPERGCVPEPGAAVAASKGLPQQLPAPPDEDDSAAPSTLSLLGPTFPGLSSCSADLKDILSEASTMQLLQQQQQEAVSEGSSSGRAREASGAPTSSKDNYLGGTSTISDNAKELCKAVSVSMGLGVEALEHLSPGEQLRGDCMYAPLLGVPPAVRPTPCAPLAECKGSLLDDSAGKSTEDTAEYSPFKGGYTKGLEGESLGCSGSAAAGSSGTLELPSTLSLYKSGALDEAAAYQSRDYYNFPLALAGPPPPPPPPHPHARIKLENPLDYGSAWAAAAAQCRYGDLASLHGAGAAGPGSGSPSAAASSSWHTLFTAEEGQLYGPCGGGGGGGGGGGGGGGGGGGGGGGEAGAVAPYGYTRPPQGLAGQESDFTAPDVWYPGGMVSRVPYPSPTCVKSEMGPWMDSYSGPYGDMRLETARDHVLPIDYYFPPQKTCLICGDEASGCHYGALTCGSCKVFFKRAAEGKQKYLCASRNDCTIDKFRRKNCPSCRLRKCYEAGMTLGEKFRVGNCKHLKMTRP

Structure (SMILES)	DC50
CN[C@@H]1CCCN(c2nccc(COc3ccc(C(C)(C)c4ccc(O[C@H]5C[C@@H](Nc6ccc7c(c6)C(=O)N(C6CCC(=O)NC6=O)C7=O)C5)cc4)cc3)n2)C1 (stereo partly shown) [Example 401]	11 to 100 nM
CN(C)[C@@H]1CCCN(c2nccc(COc3ccc(C(C)(C)c4ccc(O[C@H]5C[C@@H](Nc6ccc7c(c6)C(=O)N(C6CCC(=O)NC6=O)C7=O)C5)cc4)cc3)n2)C1 (stereo partly shown) [Example 402]	11 to 100 nM
CN[C@H]1CCCN(c2nccc(COc3ccc(C(C)(C)c4ccc(O[C@H]5C[C@@H](Nc6ccc7c(c6)C(=O)N(C6CCC(=O)NC6=O)C7=O)C5)cc4)cc3)n2)C1 (stereo partly shown) [Example 403]	11 to 100 nM
CN(C)C1CCCN(c2nccc(COc3ccc(C(C)(C)c4ccc(O[C@H]5C[C@@H](Nc6ccc7c(c6)C(=O)N(C6CCC(=O)NC6=O)C7=O)C5)cc4)cc3)n2)C1 (stereo partly shown) [Example 404]	11 to 100 nM
C[C@@H]1CN(c2nccc(COc3ccc(C(C)(C)c4ccc(O[C@H]5C[C@@H](Nc6ccc7c(c6)C(=O)N(C6CCC(=O)NC6=O)C7=O)C5)cc4)cc3)n2)[C@H](C)CN1 (stereo partly shown) [Example 408]	11 to 100 nM
C[C@@H]1CN[C@@H](C)CN1c1nccc(COc2ccc(C(C)(C)c3ccc(O[C@H]4C[C@@H](Nc5ccc6c(c5)C(=O)N(C5CCC(=O)NC5=O)C6=O)C4)cc3)cc2)n1 (stereo partly shown) [Example 411]	11 to 100 nM
Cc1nc(-c2cccc(Oc3ccc(C(C)(C)c4ccc(O[C@H]5C[C@@H](Nc6ccc7c(c6)C(=O)N(C6CCC(=O)NC6=O)C7=O)C5)cc4)cc3)n2)no1 (stereo partly shown) [Example 422]	11 to 100 nM
CC(C)(c1ccc(Oc2ccc(N3CC(N4CC(F)(F)C4)C3)nn2)cc1)c1ccc(O[C@H]2C[C@H](Nc3ccc4c(c3)C(=O)N(C3CCC(=O)NC3=O)C4=O)C2)cc1 (stereo partly shown) [Example 424]	11 to 100 nM
C[C@@H]1CN(c2nccc(COc3ccc(C(C)(C)c4ccc(O[C@H]5C[C@@H](Nc6ccc7c(c6)C(=O)N(C6CCC(=O)NC6=O)C7=O)C5)cc4)cc3)n2)C[C@H](C)N1 (stereo partly shown) [Example 433, 5-(((1s,3s)-3-(4-(2-(4-((2-((3s,5r)-3,5-dimethylpiperazin-1-yl)pyrimidin-4-yl)methoxy)phenyl)propan-2-yl)phenoxy)cyclobutyl)amino)-2-(2,6-dioxopiperidin-3-yl)isoindolin-1,3-dione]	11 to 100 nM
CC(C)(c1ccc(OCCCNc2cccc3c2C(=O)N(C2CCC(=O)NC2=O)C3=O)cc1)c1ccc(OCc2cnc(N3CCOCC3)s2)cc1 (stereo not shown) [Example 435, 2-(2,6-dioxopiperidin-3-yl)-4-((3-(4-(2-(4-((2-morpholinethiazol-5-yl)methoxy)phenyl)propan-2-yl)phenoxy)propyl)amino)isoindolin-1,3-dione]	1000 to 5000 nM
CCC(CC)(c1ccc(OCCCNc2ccc3c(c2)C(=O)N(C2CCC(=O)NC2=O)C3=O)cc1)c1ccc(OCc2ccnc(C(C)=O)n2)cc1 (stereo not shown) [Example 439, 5-((3-(4-(3-(4-((2-acetylpyrimidin-4-yl)methoxy)phenyl)pentan-3-yl)phenoxy)propyl)amino)-2-(2,6-dioxopiperidine-3-amino)isoindolin-1,3-dione]	11 to 100 nM
CC(C)(c1ccc(OCCCNc2ccc3c(c2)C(=O)N(C2CCC(=O)NC2=O)C3=O)cc1)c1ccc(OCc2ccnc(N3CCCC3)n2)cc1 (stereo not shown) [Example 440, 2-(2,6-dioxopiperidin-3-yl)-5-((3-(4-(2-(4-((2-(pyrrolidin-1-yl)pyrimidin-4-yl)methoxy)phenyl)propan-2-yl)phenoxy)propyl)amino)isoindolin-1,3-dione]	11 to 100 nM
CC(C)(c1ccc(OCCCNc2ccc3c(c2)C(=O)N(C2CCC(=O)NC2=O)C3=O)cc1)c1ccc(OCc2nc(C(N)=O)cs2)cc1 (stereo not shown) [Example 441, 2-((4-(2-(4-(3-((2-(2,6-dioxopiperidin-3-yl)-1,3-dioxoisoindolin-5-yl)amino)propoxy)phenyl)propan-2-yl)phenoxy)methyl) thiazol-4-carbonylamine]	11 to 100 nM
CC(C)(c1ccc(OCCCNc2ccc3c(c2)C(=O)N(C2CCC(=O)NC2=O)C3=O)cc1)c1ccc(OCc2nc3ncccc3o2)cc1 (stereo not shown) [Example 442, 2-(2,6-dioxopiperidin-3-yl)-5-((3-(4-(2-(4-(oxazolo[4,5-b]pyridin-2-ylmethoxy)phenyl)propan-2-yl)phenoxy)propyl)amino)isoindolin-1,3-dione]	11 to 100 nM
CC(C)(c1ccc(OCCCNc2cccc3c2C(=O)N(C2CCC(=O)NC2=O)C3=O)cc1)c1ccc(OCc2nc3ncccc3o2)cc1 (stereo not shown) [Example 443, 2-(2,6-dioxopiperidin-3-yl)-4-((3-(4-(2-(4-(oxazolo[4,5-b]pyridin-2-ylmethoxy)phenyl)propan-2-yl)phenoxy)propyl)amino)isoindolin-1,3-dione]	11 to 100 nM
CC(C)(c1ccc(Oc2ccnc(N3CC4(COC4)C3)n2)cc1)c1ccc(O[C@H]2C[C@@H](Nc3ccc4c(c3)C(=O)N(C3CCC(=O)NC3=O)C4=O)C2)cc1 (stereo partly shown) [Example 459]	11 to 100 nM
CC(C)(c1ccc(OCc2ccnc(OC3CN(C4CC4)C3)n2)cc1)c1ccc(O[C@H]2C[C@@H](Nc3ccc4c(c3)C(=O)N(C3CCC(=O)NC3=O)C4=O)C2)cc1 (stereo partly shown) [Example 467, 5-(((1s,3s)-3-(4-(2-(4-((2-((1-cyclopropylazetidin-3-yl)oxy)pyrimidin-4-yl)methoxy)phenyl)propan-2-yl)phenoxy)cyclobutyl)amino)-2-(2,6-dioxopiperidin-3-yl)isoindolin-1,3-dione]	11 to 100 nM
CC(C)(c1ccc(Oc2ccnc(-n3nccn3)n2)cc1)c1ccc(O[C@H]2C[C@H](Nc3ccc4c(c3)C(=O)N(C3CCC(=O)NC3=O)C4=O)C2)cc1 (stereo partly shown) [Example 469, 5-(((1r,3r)-3-(4-(2-(4-((2-(2H-1,2,3-triazol-2-yl)pyrimidin-4-yl)oxy)phenyl)propan-2-yl)phenoxy)cyclobutyl)amino)-2-(2,6-dioxopiperidin-3-yl)isoindolin-1,3-dione]	11 to 100 nM
Cc1nc(-c2ccnc(Oc3ccc(C(C)(C)c4ccc(O[C@H]5C[C@H](Nc6ccc7c(c6)C(=O)N(C6CCC(=O)NC6=O)C7=O)C5)cc4)cc3)c2)no1 (stereo partly shown) [Example 474]	11 to 100 nM

Results, then the compound that gave them:

DC50	Structure (SMILES)
11 to 100 nM	CC(C)(c1ccc(OCc2ccnc(N3CCOCC3)n2)cc1)c1ccc(OC2CC(Nc3ccc4c(c3)C(=O)N(C3CCC(=O)NC3=O)C4=O)C2)cc1 (stereo not shown) [Example 394]
11 to 100 nM	CN1CC(Oc2nccc(COc3ccc(C(C)(C)c4ccc(O[C@H]5C[C@@H](Nc6ccc7c(c6)C(=O)N(C6CCC(=O)NC6=O)C7=O)C5)cc4)cc3)n2)C1 (stereo partly shown) [Example 407]
11 to 100 nM	C[C@@H]1CN(c2nccc(COc3ccc(C(C)(C)c4ccc(O[C@H]5C[C@@H](Nc6ccc7c(c6)C(=O)N(C6CCC(=O)NC6=O)C7=O)C5)cc4)cc3)n2)[C@H](C)CN1C (stereo partly shown) [Example 409]
11 to 100 nM	C[C@@H]1CN(C)[C@@H](C)CN1c1nccc(COc2ccc(C(C)(C)c3ccc(O[C@H]4C[C@@H](Nc5ccc6c(c5)C(=O)N(C5CCC(=O)NC5=O)C6=O)C4)cc3)cc2)n1 (stereo partly shown) [Example 412]
11 to 100 nM	Cn1nccc1-c1nccc(COc2ccc(C(C)(C)c3ccc(O[C@H]4C[C@@H](Nc5ccc6c(c5)C(=O)N(C5CCC(=O)NC5=O)C6=O)C4)cc3)cc2)n1 (stereo partly shown) [Example 417]
11 to 100 nM	Cn1cc(-c2cccc(COc3ccc(C(C)(C)c4ccc(O[C@H]5C[C@@H](Nc6ccc7c(c6)C(=O)N(C6CCC(=O)NC6=O)C7=O)C5)cc4)cc3)n2)cn1 (stereo partly shown) [Example 418]
11 to 100 nM	CC1(CNc2nccc(COc3ccc(C(C)(C)c4ccc(O[C@H]5C[C@@H](Nc6ccc7c(c6)C(=O)N(C6CCC(=O)NC6=O)C7=O)C5)cc4)cc3)n2)CNC1 (stereo partly shown) [Example 457]
11 to 100 nM	CC1(C)CN(c2nccc(COc3ccc(C(C)(C)c4ccc(O[C@H]5C[C@@H](Nc6ccc7c(c6)C(=O)N(C6CCC(=O)NC6=O)C7=O)C5)cc4)cc3)n2)CCN1 (stereo partly shown) [Example 458, 5-(((1s,3s)-3-(4-(2-(4-((2-(3,3-dimethylpiperazin-1-yl)pyrimidin-4-yl)methoxy)phenyl)propan-2-yl)phenoxy)cyclobutyl)amino)-2-(2,6-dioxopiperidin-3-yl)isoindolin-1,3-dione]
101 to 1000 nM	Cn1nc(C(F)(F)F)cc1-c1nccc(COc2ccc(C(C)(C)c3ccc(O[C@H]4C[C@@H](Nc5ccc6c(c5)C(=O)N(C5CCC(=O)NC5=O)C6=O)C4)cc3)cc2)n1 (stereo partly shown) [Example 462]
11 to 100 nM	CCN1CC(Oc2nccc(COc3ccc(C(C)(C)c4ccc(O[C@H]5C[C@@H](Nc6ccc7c(c6)C(=O)N(C6CCC(=O)NC6=O)C7=O)C5)cc4)cc3)n2)C1 (stereo partly shown) [Example 466]
11 to 100 nM	Cc1noc(-c2cccc(COc3ccc(C(C)(C)c4ccc(O[C@H]5C[C@@H](Nc6ccc7c(c6)C(=O)N(C6CCC(=O)NC6=O)C7=O)C5)cc4)cc3)n2)n1 (stereo partly shown) [Example 472]

same assay, conditions: AR-v7 degradation in 22RV1 cells, 48 h, numeric values

DC50	Structure (SMILES)
> 10000 nM	CC(C)(c1ccc(OCCCCCCCCOCCCCNc2ccc3c(c2)C(=O)N(C2CCC(=O)NC2=O)C3=O)cc1)c1ccc(OCc2ccnc(-n3cccn3)n2)cc1 (stereo not shown) [Example 437, 5-((4-((8-(4-(2-(4-((2-(1H-pyrazol-1-yl)pyrimidin-4-yl)methoxy)phenyl)propan-2-yl)phenoxy)octyl)oxy)butyl)amino)-2-(2,6-dioxopiperidin-3-yl)isoindolin-1,3-dione]
